Experimental data: patent publication US20250222044A1, “LIMOSILACTOBACILLUS REUTERI GOLDGUT-LR99 AND APPLICATION THEREOF” (priority 2024, published 2025)

Experiments:
[1] = system: Limosilactobacillus reuteri GOLDGUT-LR99; assay: Antibiotic sensitivity, K-B method (Kirby-Bauer method); assay type: cell-based; set-up: key to Antibiotic susceptibility test result: R represents resistance; S represents sensitivity; details: susceptibility of the strain to the antibiotic
Procedure: Antibiotic sensitivity of Limosilactobacillus reuteri GOLDGUT-LR99 was determined using the K-B method (Kirby-Bauer method).

[2] = system: Limosilactobacillus reuteri GOLDGUT-LR99; assay: Carbon source utilization and oxidation experiment (AN Biolog micro-pore plate); assay type: cell-based; details: substrate utilization by the strain, 37° C. anaerobic culture for 24 hours
Procedure: The AN Biolog micro-pore plate was used for measuring the utilization and oxidation conditions of different carbon sources of Limosilactobacillus reuteri GOLDGUT-LR99, the AN microplate used nutrients and biochemical reagents, and the method included the following steps: 1 mL of Limosilactobacillus reuteri GOLDGUT-LR99 bacterial liquid of the strain to be detected at the end of logarithmic growth was pipetted and centrifuged, then the supernatant was removed, the cells was washed three times with the seed liquid and suspended with 1 mL of the seed liquid, 50 μL of the suspension was taken and diluted in 10 mL of the seed liquid, the diluent was subpacked in a Biolog plate (100 μL/pore) after mixing uniformly, and the Biolog plate with the diluent was placed in 37° C. for anaerobic culture for 24 hours. After the culture was finished, OD590 and OD750 were detected by using microplate reader, the numerical values were recorded, and the utilization conditions of carbohydrate, organic acid and other substances of the Limosilactobacillus reuteri GOLDGUT-LR99 were calculated, wherein the calculation method was as follows: Y=OD590−OD750;

With `CC1(C)S[C@@H]2[C@H](NC(=O)[C@H](N)c3ccccc3)C(=O)N2[C@H]1C(=O)O` [Ampicillin] the “Antibiotic susceptibility test result” value [1] was “S” and the “antibiotic sensitivity (in words)” value [1] was “sensitive”.

`CC1(C)S[C@@H]2[C@H](NC(=O)Cc3ccccc3)C(=O)N2[C@H]1C(=O)O` [Benzylpenicillin] was tested, and the “Antibiotic susceptibility test result” value [1] was “S”.

With `CC1(C)S[C@@H]2[C@H](NC(=O)C(C(=O)O)c3ccccc3)C(=O)N2[C@H]1C(=O)O` (stereo partly shown) [Carbenicillin] the “Antibiotic susceptibility test result” value [1] was “S”.

For `Cc1nnc(SCC2=C(C(=O)O)N3C(=O)[C@@H](NC(=O)Cn4cnnn4)[C@H]3SC2)s1` [Cefazolin], the “Antibiotic susceptibility test result” value [1] was “S”.

In the case of `CCN1CCN(C(=O)N[C@@H](C(=O)N[C@@H]2C(=O)N3C(C(=O)O)=C(CSc4nnnn4C)CS[C@H]23)c2ccc(O)cc2)C(=O)C1=O` [Cefperazone], the “Antibiotic susceptibility test result” value [1] is reported as “S”.

For `CC1=C(C(=O)O)N2C(=O)[C@@H](NC(=O)[C@H](N)C3=CCC=CC3)[C@H]2SC1` [Cefradine], the “Antibiotic susceptibility test result” value [1] was “S”.

In the case of `CC(C)(O/N=C(\C(=O)N[C@@H]1C(=O)N2C(C(=O)[O-])=C(C[n+]3ccccc3)CS[C@H]12)c1csc(N)n1)C(=O)O` [Ceftazidime], the “Antibiotic susceptibility test result” value [1] is reported as “S”.

For `CO/N=C(\C(=O)N[C@@H]1C(=O)N2C(C(=O)O)=C(CSc3nc(=O)c(=O)[nH]n3C)CS[C@H]12)c1csc(N)n1` [Ceftriaxone], the “Antibiotic susceptibility test result” value [1] was “S”.

`CO/N=C(\C(=O)N[C@@H]1C(=O)N2C(C(=O)O)=C(COC(N)=O)CS[C@H]12)c1ccco1` [Cefuroxime] was tested, and the “Antibiotic susceptibility test result” value [1] was “S”.

With `CC1=C(C(=O)O)N2C(=O)[C@@H](NC(=O)[C@H](N)c3ccccc3)[C@H]2SC1` [Cephalexin] the “Antibiotic susceptibility test result” value [1] was “S”.

`O=C(N[C@H](CO)[C@H](O)c1ccc([N+](=O)[O-])cc1)C(Cl)Cl` [Chloramphenicol] was tested, and the “Antibiotic susceptibility test result” value [1] was “S”.

For `O=C(O)c1cn(C2CC2)c2cc(N3CCNCC3)c(F)cc2c1=O` [Ciprofloxacin], the “Antibiotic susceptibility test result” value [1] was “R”.

`CCC[C@@H]1C[C@@H](C(=O)N[C@@H]([C@H]2O[C@H](SC)[C@H](O)[C@@H](O)[C@H]2O)[C@H](C)Cl)N(C)C1` [Clindamycin] was tested, and the “Antibiotic susceptibility test result” value [1] was “R”.

For `C[C@H]1c2cccc(O)c2C(=O)C2=C(O)[C@]3(O)C(=O)C(C(N)=O)=C(O)[C@@H](N(C)C)[C@@H]3[C@@H](O)[C@@H]21` [Doxycycline], the “Antibiotic susceptibility test result” value [1] was “S”.

In the case of `CC[C@H]1OC(=O)[C@H](C)[C@@H](O[C@H]2C[C@@](C)(OC)[C@@H](O)[C@H](C)O2)[C@H](C)[C@@H](O[C@@H]2O[C@H](C)C[C@H](N(C)C)[C@H]2O)[C@](C)(O)C[C@@H](C)C(=O)[C@H](C)[C@@H](O)[C@]1(C)O` [Erythromycin], the “Antibiotic susceptibility test result” value [1] is reported as “R”.

`O=C1OCCN1/N=C/c1ccc([N+](=O)[O-])o1` [Furazolidone] was tested, and the “Antibiotic susceptibility test result” value [1] was “S”.

With `NC[C@H]1O[C@H](O[C@H]2[C@H](O)[C@@H](O[C@H]3O[C@H](CO)[C@@H](O)[C@H](N)[C@H]3O)[C@H](N)C[C@@H]2N)[C@H](O)[C@@H](O)[C@@H]1O` [Kanamycin] the “Antibiotic susceptibility test result” value [1] was “S”.

For `CCC(=O)O[C@@H]1CC(=O)O[C@H](C)C/C=C/C=C/[C@H](O)[C@H](C)C[C@H](CC=O)[C@H](O[C@@H]2O[C@H](C)[C@@H](O[C@H]3C[C@@](C)(O)[C@@H](OC(=O)CC)[C@H](C)O3)[C@H](N(C)C)[C@H]2O)[C@H]1OC` [Midecamycin], the “Antibiotic susceptibility test result” value [1] was “R”.

With `CN(C)c1ccc(O)c2c1C[C@H]1C[C@H]3[C@H](N(C)C)C(O)=C(C(N)=O)C(=O)[C@@]3(O)C(O)=C1C2=O` [Minocycline] the “Antibiotic susceptibility test result” value [1] was “S”.

For `CCn1cc(C(=O)O)c(=O)c2cc(F)c(N3CCNCC3)cc21` [Norfloxacin], the “Antibiotic susceptibility test result” value [1] was “R”.

With `CC1COc2c(N3CCN(C)CC3)c(F)cc3c(=O)c(C(=O)O)cn1c23` (stereo not shown) [Ofloxacin] the “Antibiotic susceptibility test result” value [1] was “R”.

In the case of `CCN1CCN(C(=O)N[C@@H](C(=O)N[C@@H]2C(=O)N3[C@@H]2SC(C)(C)[C@@H]3C(=O)O)c2ccccc2)C(=O)C1=O` [Piperacillin], the “Antibiotic susceptibility test result” value [1] is reported as “S”.

In the case of `Cc1cc(NS(=O)(=O)c2ccc(N)cc2)no1` [Sulfamethoxazole, Compound Sulfamethoxazole], the “Antibiotic susceptibility test result” value [1] is reported as “R”.

With `CN(C)[C@@H]1C(O)=C(C(N)=O)C(=O)[C@@]2(O)C(O)=C3C(=O)c4c(O)cccc4[C@@](C)(O)[C@H]3C[C@@H]12` [Tetracycline] the “Antibiotic susceptibility test result” value [1] was “S”.

`CN[C@H](CC(C)C)C(=O)N[C@H]1C(=O)N[C@@H](CC(N)=O)C(=O)N[C@H]2C(=O)N[C@H]3C(=O)N[C@H](C(=O)N[C@H](C(=O)O)c4cc(O)cc(O)c4-c4cc3ccc4O)[C@H](O)c3ccc(c(Cl)c3)Oc3cc2cc(c3O[C@@H]2O[C@H](CO)[C@@H](O)[C@H](O)[C@H]2O[C@H]2C[C@](C)(N)[C@H](O)[C@H](C)O2)Oc2ccc(cc2Cl)[C@H]1O` [Vancomycin] was tested, and the “Antibiotic susceptibility test result” value [1] was “R”.

In the case of Gentamicin, the “Antibiotic susceptibility test result” value [1] is reported as “S”.

For Neomycin, the “Antibiotic susceptibility test result” value [1] was “S”.

For Penicillin, the “Antibiotic susceptibility test result” value [1] was “S”.

Polymyxin was tested, and the “Antibiotic susceptibility test result” value [1] was “R”.

α-Succinic acid was tested, and the “Utilization (Y=OD590−OD750)” value [2] was “− (when Y < 0.05, it is shown that the strain was not able to utilize this substance, marked as −)”.
